# Measurements from patent US5096909A, “Fucosidase inhibitor” (Monsanto Company, priority 1990, dated 1992).
# Experiments:
# digestive α-glucosidase = settings: cited from earlier work
# pKa (Table 1) = format: physicochemical
# α-glucosidase = settings: cited from earlier work
# [1] = system: human immunodeficiency virus; settings: cited from earlier work
# [2] = system: mammalian α-L-fucosidases; settings: cited from earlier work
# [3] = system: N-acetyl-β-D-hexosaminidase; experiment: Specificity: inhibition of other glycosidases in human liver extract at 1 mM, N-acetyl-β-D-hexosaminidase; format: biochemical; settings: 4-umbelliferyl glycoside substrate 0.5 mM, optimal pH
# Procedure: Tissue Post-mortem human liver, which had been stored at -20° C. until required was homogenized in deionized water (50%, w/v) in a Potter-Elvehjem homogenizer and then centrifuged at 37,000 g for 30 min in an MSE 18 centrifuge. The resultant supernatant was used as the source of human glycosidases. A lyophilized extract of liver from Charonia lampas was obtained from Seikagaku Kogyo Co., Japan for the isolation of α-L-fucosidase by the published procedure of Iijima and Egami, J. Biochem. 70, 75-78 (1971).
# Enzyme Assays The glycosidase activities in an extract of human liver were assayed by using the appropriate fluorigenic 4-umbelliferyl glycoside substrate (Koch-Light, Haverhill, Suffolk, U.K.) with a concentration of 0.5 mM at the optimal pH for each enzyme [Burditt et al., Biochem. J. 189, 467-473 (1980)]. The specificity of the inhibitors was determined by assaying the glycosidases in the presence of and absence of a 1 mM solution of each compound. The nature of the inhibition of human α-L-fucosidase, the value of Ki determined by using the Dixon graphical procedure and the effect of pH on the inhibition were investigated as described previously by Al Daher et al., Biochem. J. 258, 613-615 (1989). […]
smiles,measurement,setting,value
OC[C@H]1N[C@H](CO)[C@@H](O)[C@H](O)[C@H]1O [α-Homonojirimycin],inhibition of digestive α-glucosidase activity,digestive α-glucosidase,potent inhibitor of digestive α-glucosidase activity
"C[C@H]1N[C@@H](CO)[C@@H](O)[C@H](O)[C@@H]1O [(6), 2,6-Imino-2,6,7-trideoxy-D-glycero-D-gluco-heptitol]",pKa,pKa (Table 1),7.7
"OC[C@H]1NC[C@H](O)[C@@H](O)[C@@H]1O [deoxynojirimycin (1), deoxynojirimycin]",α-glucosidase inhibition,α-glucosidase,α-glucosidase inhibitor
same,inhibition of human immunodeficiency virus synctium formation,[1]; syncytium formation,inhibit human immunodeficiency virus synctium formation
same,inhibition of human immunodeficiency virus replication,[1]; virus replication,inhibit human immunodeficiency virus synctium formation and virus replication
"C[C@@H]1NC[C@@H](O)[C@H](O)[C@@H]1O [DFJ, 1,5-Dideoxy-1,5-imino-L-fucitol]",pKa,pKa (Table 1),8.4
same,inhibition of a number of mammalian α-L-fucosidases,[2],very powerful and highly specific inhibitor of a number of mammalian α-L-fucosidases
same,Other specificities (% inhibition at 1 mM): N-acetyl-β-D-hexosaminidase,[3],59%
